The subject of data set [1] is D2 myoblasts. The protocol: FIG. 7A: 9 primary hit compounds dose-response measured by MyHC antibody immunofluorescent intensity/nuclei. Concentrations of compounds were 0.001, 0.01, 0.1, 1, 2, 3, 4, 6 μM, except for saponin Q. which was 0.001, 0.01, 0.1, 0.2, 0.4, 0.6, 1 μM (n=3 for all). FIG. 7B: 9 primary hit compounds dose-response measured by α-actinin antibody immunofluorescent intensity/nuclei. Concentrations were same as in (FIG. 7A) (n=3 for all). FIGS. 7C-7E: Dose-response measured by cell average length of 3 analogs of saponin Q (n=3). […] (Data=Mean±SEM).
To further evaluate the efficacy of the 9 hit compounds and determine their optimal concentrations, an 8-point dose response assay was conducted, based on three parameters: anti-MyHC immunocytochemistry, anti-α-actinin immunocytochemistry and average cell length (FIGS. 7A-7B).

In data set [2] the test system is FLT3 signaling pathway. The following applies: 5 μM, 24 h. The source says:
Triplicate samples were used in microarray analysis. […] RNA was isolated using TRIzol (Invitrogen Life Technologies, Carlsbad, CA) followed by purification and DNase digestion using RNeasy mini kits (Qiagen, Venlo, Netherlands) according to manufacturer's instructions. […] Generation of sense strand cDNA from purified total RNA was followed by second strand synthesis, in vitro transcription cDNA synthesis, and single stranded cDNA synthesis and RNA hydrolysis. Fragmentation and labelling were performed according to manufacturer's instructions (GeneChip WT Plus reagent kit, Affymetrix, Santa). RNA extraction and qPCR were performed according to previous protocols, and primers are included in Table 1. The microarray data has been deposited in NCBI's Gene Expression Omnibus database and is accessible through the GEO series accession number GSE121023.

The test system of data set [3] is p21 (WAF1/CIP1). Put plainly: Western blot of p21 protein expression in D2 myoblasts. The data set is classed as cell-based, human. Particulars: ginsenoside 25 μM or FLT3 recombinant protein 100 ng/ml, 30 min. The protocol: FIG. 3A: Top pathways selected by ingenuity pathway analysis of microarray result from ginsenoside Rd and fenofibrate-treated D2 myoblasts for 24 hours. Absolute z-score values above 2 were highlighted in red. FIGS. 3B and 3D: Quantification of western blot of p21 protein expression in D2 myoblasts treated with ginsenoside (25 μM), FLT3 recombinant protein (100 ng/ml) or DMSO for 30 min, n=4, *P≤0.05. FIG. 3C, 3E: Quantification of western blot of phosphorylated ERK 1/2 (p-ERK 1/2) in D2 myoblasts treated with ginsenoside (25 μM), FLT3 recombinant protein (100 ng/ml) or DMSO for 30 min, n=4, *P≤0.05. […] (Data=Mean±SEM, FIGS. 3D, 3E: one-way ANOVA with Dunnett's multiple comparison test with DMSO negative control, FIG. 3G: one-way ANOVA with Tukey's multiple comparison test).
Whole-cell extracts were prepared by lysing cells on plate with RIPA buffer (CST) supplemented by proteinase inhibitor and phosphatase inhibitor cocktail (CST). Western blotting was performed according to the standard protocol using precast NuPAGE (4-12%) Bis-Tris gel (Invitrogen). Protein transfer was performed with the Bio-Rad turbo or wet/tank blotting system. […] Membranes were then incubated with a secondary IRDye 800 conjugated anti-rabbit IgG, or Alexa Fluor 680 anti-mouse IgG and proteins were visualized and quantified using the LI-COR Odyssey Infrared Imaging System (LI-COR). […]
(Immunoblotting shows a protein as a band on a membrane.)

The subject of data set [4] is ERK1/2. Put plainly: Western blot of phosphorylated ERK 1/2 in D2 myoblasts. It counts as cell-based, human. Particulars: ginsenoside 25 μM or FLT3 recombinant protein 100 ng/ml, 30 min.
Protocol: Whole-cell extracts were prepared by lysing cells on plate with RIPA buffer (CST) supplemented by proteinase inhibitor and phosphatase inhibitor cocktail (CST). […] Protein transfer was performed with the Bio-Rad turbo or wet/tank blotting system. Nitrocellulose membranes were incubated with primary antibodies overnight at 4° C. Membranes were then incubated with a secondary IRDye 800 conjugated anti-rabbit IgG, or Alexa Fluor 680 anti-mouse IgG and proteins were visualized and quantified using the LI-COR Odyssey Infrared Imaging System (LI-COR). Primary antibodies applied in this study were all purchased from Cell Signaling Technology except for the MEF2C antibody, which was from Sigma.
For data set [5], the system named is mdx^5cv mice. Put plainly: Masson's trichrome fibrosis in diaphragm muscle. The following applies: ip, 10 mg/kg, 1344 h. The data set is classed as in vivo, mouse. An excerpt:
(§1) All animal experiments were approved by the Institutional Animal Care and Use Committee (IACUC) of The Johns Hopkins University, School of Medicine (Baltimore, Maryland). Mdx^5cv (B6Ros.Cg-Dmdmdx-5Cv/J) were obtained from The Jackson Laboratory. Mice were maintained in a 12-h light cycle (7 am-7 pm) with ad libitum access to food and water. […] Ginsenoside Rd was suspended in saline containing 10% 1,3-propanediol as vector.
(§2) Gastrocnemius, tibialis anterior, and diaphragm muscles were embedded in OCT, frozen in isopentane, and cross-sectioned (˜2-10 μm thickness). The sections were also stained with DAPI to visualize nuclei. In mice where Evans blue dye (EBD, 10 mg/ml) was used to evaluate membrane damage, EBD was injected at 0.05 ml/10 g intraperitoneally, 24 hours before sacrificing the mice. To evaluate EBD staining, gastrocnemius muscle sections were fixed with acetone and imaged with fluorescence microscopy. The area of EBD as a percentage of total area was calculated. To evaluate the number of central nucleated fibers, sections of the tibialis anterior muscle were stained with hematoxylin and eosin. Central nucleated fiber number was counted and analyzed against total fiber number. Diaphragm sections (10 μm) were stained with Masson's trichrome to determine collagen content. The stained areas were quantified against the total area.

For data set [6], the system named is mdx^5cv mice. Description: Evans blue staining and central nucleated fiber histology. It counts as in vivo, mouse. The following applies: 8 weeks treatment.
Excerpt: as §1, §2

The subject of data set [7] is mdx^5cv mice. Put plainly: Treadmill running. The data set is classed as in vivo, mouse. The following applies: 1344 h. The protocol: as §1
Forelimb grip strength was measured as maximal tensile force using a computerized force transducer (Grip Strength Meter, Bioseb). Five measurements were performed for each animal and the maximum value was used for the analysis. Treadmill testing was performed using a motor-driven treadmill (Columbus Instruments). Prior to the test day, acclimatization was performed 5 times over a period of 2 weeks at 10 m/min. On the test day, mice ran at 5 m/min for 5 min (warm up) and the speed was increased 1 m/min every min up to 10 m/min. Mice were considered exhausted when they sat for more than 10 sec on a shock pad for the third time.

Data set [8] concerns mdx^5cv mice. Description: Tibialis anterior muscle strength and rate of fatigue. The data set is classed as in vivo, mouse.
Excerpt: as §1
Tibialis anterior muscle strength (maximal isometric force) and rate of fatigue were measured. Briefly, animals were anaesthetized with 3-5% isoflurane and placed in a supine position. The tibia was stabilized and the distal tendon of the tibialis anterior (TA) was surgically released and attached to the load cell (FT03, Grass Instruments, Warwick, RI). The load cell was adjusted via a micromanipulator to stretch the muscle to resting length (aka, optimal length). TA contraction was then triggered via subcutaneous stimulation of the fibular nerve, and the resulting force generated was sampled at 1 kHz and analyzed with acquisition software (PolyVIEW™ 16, Grass Instruments). After contractile function experiments, animals were euthanized and the TAs were harvested and weighed. […] To provide an index of fatigue, muscle tension was measured after 5 minutes of tetanic stimulation (200 ms train duration) repeated at 1 Hz and expressed as a percentage of initial tension.

“Also recorded” adds a separate entry of the source.

In the case of `CC(C)=CCC[C@](C)(O[C@@H]1O[C@H](CO)[C@@H](O)[C@H](O)[C@H]1O)[C@H]1CC[C@]2(C)[C@@H]1[C@H](O)C[C@@H]1[C@@]3(C)CC[C@H](O[C@@H]4O[C@H](CO)[C@@H](O)[C@H](O)[C@H]4O[C@@H]4O[C@H](CO)[C@@H](O)[C@H](O)[C@H]4O)C(C)(C)[C@@H]3CC[C@]12C` [ginsenoside Rd], in data set [1], the “fusion of DMD hiPSC-derived myoblasts” value is reported as “helped restore fusion” and the “toxicity / cell death” value is on record as “lower toxicity”. For the same compound, in data set [1] (saponin analog test), the “dose-dependent effect on D2 myoblasts (cell average length)” value was “dose-dependent effect”. In data set [2], the “ingenuity pathway analysis z-score, FLT3 signaling pathway” value is given as greater than 2. For the same compound, the “levels of p21” value in data set [3] was “Increased levels of p21”. Besides, the “ERK1/2 activation (p-ERK 1/2)” value in data set [4] is listed as “activated”. The “reduction of levels of fibrosis in diaphragm” value in data set [5] turned out to be 29%. Also, the “number of Evans blue dye positive fibers” value in data set [6] (gastrocnemius) is “not significantly different”. The central nucleated fibers entry in data set [6] (tibialis anterior) was “not significantly different”. Further, in data set [7], the “improvement of endurance on treadmill running” value is listed as “no effect”. In data set [8] (compared to mdx TA muscles), the “susceptibility of TA muscles to fatigue (repeated maximal isometric contractions)” value is listed as “less susceptible to fatigue; also recorded: increased their resistance to fatigue”. For the same compound, the “maximal isometric force generated by tibialis anterior (TA)” value in data set [8] (compared with sham control) is on record as “no significant difference”.

The values above are taken from patent US12169196B2, “Human iPSC-based drug testing platform for muscular dystrophy” (The Johns Hopkins University, priority 2019, dated 2024).
